{"source": "patent US8592419B2", "about": "“Ceramides and apoptosis-signaling ligand” (MUSC Foundation for Research Development, priority 2004, dated 2013)", "format_in_all_cases": "cell-based, human", "key": {"DU145 cells [1]": {"system": "DU145 cells", "assay": "MTS cell viability assay in DU145 cells", "settings": "in vitro", "procedure": "MTS cytotoxicity assays for LCL204 treatments. Cell viability was determined using the CellTiter 96 AQueous One Solution Cell Proliferation Assay (Promega; Madison, Wis., USA). 1×10^4 cells per well were seeded in 96-well plates overnight. The next day media was removed and replaced with either 100 μl media with vehicle control or media containing LCL204 at desired concentrations. Assays were carried out according to manufacturer's instruction as previously described (60). For experiments using enzyme inhibitors and LCL204, media was removed and replaced with 50 μl media containing vehicle only or indicated inhibitor. Cells were pretreated 1 hour at 37° C. before adding 50 μl media containing vehicle, inhibitor only, LCL204 only (2× concentration), or a combination. The remainder of the assay was carried out as described above."}, "AC mRNA": {"system": "AC mRNA", "assay": "Reverse transcriptase PCR of AC mRNA", "settings": "10 μM, DU145 cells", "procedure": "Reverse Transcriptase PCR. DU145 cells were seeded in 6-well plates as described above. […] Cells were collected at indicated time points and total RNA was extracted using RNAqueous-4PCR kit (Ambion Inc.; Austin, TX), including the DNase I treatment step to remove DNA contamination. The level of transcripts of AC was assayed by two-step RT-PCR protocol (Ambion) and Rig/S15 was used as an internal control. The sequence of the primer for amplification of AC is as followed: [NT] 375 bp. All reactions were performed in a programmable thermal cycler (reverse transcription at 55° C. for 1 hour; PCR at 95° C., 3 minutes; 95° C., 30 second; 52° C., 1 minute and extension at 72° C. for 1 minute; final extension at 72° C., 10 minutes)."}, "lysosomes of DU145 cells": {"system": "lysosomes of DU145 cells", "assay": "Lysosomal stability assay (LysoTracker Red)", "procedure": "Lysosoinal stability assay. Lysosomal stability was measured using the fluorescent dye LysoTracker Red (LTR). Cells were seeded overnight in 60 mm plates. The next day, medium was removed and replaced with medium containing 200 nM LTR. Cells were loaded with LTR for 30 minutes at 37° C. LTR was removed and cells were washed once with PBS, then medium containing the treatment was added for the indicated time. After treatment, cells were lifted with trypsin, washed once in PBS, and resuspended in 0.5 mL growth medium. LTR fluorescence was measured using FACS analysis (564-606 nm) as above. A decrease in fluorescence intensity corresponded to an increase in lysosomal pH, and a minimum of 10,000 events were scored for each sample."}, "Bak": {"system": "Bak", "assay": "Bak protein level and Bak foci (Western blot, confocal microscopy)", "procedure": "(§1) Immunoblot analysis. Cells were seeded in 60mm plates as described above and treated accordingly. Cells were lifted by gently scraping the plates, washed once with ice cold PBS and then lysed in lysis buffer (PBS, 1% Triton X-100, 10% glycerol) containing protease inhibitors pepstatin A (0.5 μg/ml), leupeptin (0.5 μg/ml), aprotinin (5 μg/ml), and PMSF (100 μg/ml) for 10 minutes on ice. Insoluble material was removed by centrifugation at 14,000 rpm for 15 minutes at 4° C. The supernatants were then supplemented with SDS at a final concentration of 2% and stored at −80° C. Protein concentrations were determined using the DC Protein Assay (BioRad Laboratories; Hercules, CA, USA) according to the manufacturer's instructions. 50 μg of protein per sample (unless otherwise indicated) were separated on NuPAGE 4-12% Bis-Tris gels (Invitrogen; Carlsbad, CA, USA) and transferred to nitrocellulose membranes (BioRad). Following transfer, membranes were blocked for 1 hour at room temperature in Tris-buffered saline (TBS) containing 0.1% Tween-20 and 5% nonfat dry milk and incubated overnight at 4° C. with primary antibody at a dilution of 1:2,000(actin), 1:1,000(cytochrome c, COX IV, Bax, Bak, p53, p38, P-p38), 1:500(P-JNK, JNK), 1:250 (AC, p73), or 1:400(LAMP-1, cathepsin B). Overnight incubations were performed in 5% milk in TBS-Tween. Following overnight incubation, membranes were washed three times for 10 minutes each in TBS-Tween and incubated for 1 hour at room temperature with secondary antibody in 5% milk TBS-Tween at a dilution 1:5,000 (goat anti-mouse IgG) or 1:50,000 (goat anti-rabbit). Membranes were then washed three times more and incubated for 5 minutes at room temperature with Super Signal HRP substrate (Pierce Biotechnology Inc.; Rockford, IL, USA).\nConfocal Microscopy and Immunocytochemistry. DU145 cells were grown in 4.3 cm^2 chamber slides (Nalge Nunc) and transfected with YFPmito alone or with the dominant-negative inhibitor of Drp1(K38A) (64) using FuGENE6 (Roche; Indianapolis, IN) according to the manufacturer's instructions using 1 μg of total DNA per chamber. 24 hr after transfection and 30 min prior to treatment with 15 μM LCL204, cells were exposed to zVAD-fmk (50 μM). The slides were fixed with 4% paraformaldehyde for 20 min then permeabilized with 0.2% Triton X-100 for 15 min, followed by blocking with 4% bovine serum albumin for 45 min at RT. Cells were probed with rabbit polyclonal 2-14 anti-Bak antibody (1:5000; BioChem) for 2 hr then stained with goat anti-rabbit Alexa Fluor 543 antibodies (1:250; Molecular Probes) for 45 min. After washing, cells were imaged using the 63x objective of an LSM 510 Zeiss confocal microscope."}, "PUMA": {"system": "PUMA", "assay": "Immunoblot of PUMA", "settings": "for PUMA up-regulation: 10 μM", "procedure": "as §1"}, "DU145 cells [2]": {"system": "DU145 cells", "assay": "Cell death by MTS assay, ceramide analog combined with AdGFPFasL virus", "procedure": "LCL102, a ceramidase inhibitor, which acts to increasing intracellular ceramide levels by […], were tested in this system. This molecule was highly efficient at activating cell death in DU145 cells at nontoxic doses if combined with AdGFPFasL virus at MOIs achievable in vivo. DU145 cells growing in 96 well plates at 1×10^4 cells/well are treated with either media alone or LCL102 at 2 uM for 48 hours followed by AdGFPFasL for 24 hours at the MOI (5-80). Cell death is assayed by the MTS assay. At 2 uM LCL102 and 5MOI of virus, cell death is amplified 4-fold compared to LCL102 alone (FIG. 14)."}}}
{"smiles": "CCCCCCCCCCCCCCN[C@H](CO)[C@H](O)c1ccc([N+](=O)[O-])cc1.Cl", "note": "[LCL204, (1R,2R) D-threo-2-N-Tetradecylamino-1-(4′-nitrophenyl)-1,3-propandiol hydrochloride]", "values": [{"measurement": "potency as inducer of cell death compared with B13", "setting": "DU145 cells [1]", "result": "much more potent inducer of cell death than B13"}, {"measurement": "AC mRNA levels", "setting": "AC mRNA", "result": "no decrease in AC mRNA levels"}, {"measurement": "onset of the effect on lysosomal pH", "setting": "lysosomes of DU145 cells; DU145 cells, 10 μM", "result": "as early as five minutes"}, {"measurement": "shift in LTR fluorescence (rise in lysosomal pH)", "setting": "lysosomes of DU145 cells; DU145 cells, 1 hour, LCL204 10 μM, C6-ceramide 30 μM, B13 20 μM", "result": "induced the shift in LTR fluorescence"}, {"measurement": "lysosome destabilization versus concentration", "setting": "lysosomes of DU145 cells; DU145 cells, one hour", "result": "destabilized lysosomes in a concentration-dependent manner"}, {"measurement": "earliest destabilization of the lysosomes", "setting": "lysosomes of DU145 cells; prostate cancer cells", "result": 5, "unit": "min"}, {"measurement": "Bak protein levels over time", "setting": "Bak; DU145 and PC-3 cells, 10 μM, 12 hours", "result": "accumulated Bak protein"}, {"measurement": "Bak protein levels versus concentration", "setting": "Bak; DU145 cells, 12-hour treatment", "result": "concentration-dependent up-regulation"}, {"measurement": "Bak foci on the mitochondria membrane", "setting": "Bak; DU145 cells, 20 hours, confocal microscopy", "result": "formation of Bak foci was detected"}, {"measurement": "Bak and p73 levels", "setting": "Bak; PPC-1/pcDNA3 cells, 7.5 μM, 5 hours", "result": "up-regulation of both Bak and p73 levels"}, {"measurement": "PUMA up-regulation", "setting": "PUMA; DU145 cells", "result": "up-regulated in DU145 cells after eight hours"}, {"measurement": "PUMA up-regulation", "setting": "PUMA; PC-3 cells", "result": "earlier (four hours) in PC-3 cells"}, {"measurement": "time of PUMA induction", "setting": "PUMA; PPC-1/pcDNA3 control cells, 7.5 μM", "result": 90, "unit": "min"}, {"measurement": "increase in cancer cell death", "setting": "DU145 cells [2]; 2 μM in combination with AdGFPFasL virus at low MOIs", "result": "≤ 10", "unit": "fold"}, {"measurement": "viral infectivity", "setting": "DU145 cells [2]; DU145 cells", "result": "not modifying viral infectivity"}, {"measurement": "increase of the ability of AdGFPFasL to kill tumor cells", "setting": "DU145 cells [2]; in vitro, subtoxic doses", "result": "as much as ten-fold"}]}
